Experimental data as given in patent US20160106814A1, “Novel Oral Pharmaceutical Composition for Treatment of Diabetes” (NOVO NORDISK A/S, priority 2013, published 2016).

Experiments:
[1] = GLP-1 peptide degradation by GI extracts in presence of BBI; format: in vitro ADME, Sprague Dawley rats; conditions: half-life with 0.1% BBI divided by half-life without BBI, rat GI juice
Description: 96 well plates were coated by incubating with 0.4% BSA solution for a minimum of 60 min. To each well, 210 μl of buffer (HBSS-HEPES buffer with 0.005% Tween 20 and 0.005% BSA, pH 6.5), 30 μl of a substrate (100 μM GLP-1 peptide in buffer) and 30 μl of BBI (1%) were added. The plates were pre-incubated (before adding GI juice) for 60 min at 37° C. After addition of 30 μl of GI juice, the plates were incubated for 60 min/37° C. on shaker. Samples (40 μl) were taken at 0, 3, 6, 10, 30 and 60 min, stopped with 3 vol. cold 96% EtOH w. 1% HCOOH and centrifuged (4500 rcf for 10 min at 4° C.). The resulting supernatant from the samples were diluted 5 times with the buffer prior to LC-MS analysis. Standard samples (0.1, 0.5, 1.0, 5.0, 10.0 μM) were prepared and treated as the samples. Standard curve was analysed both at the beginning and the end of the sequence. Two replicates of each tested conditions were included. Intact GLP-1 peptide was determined in each sample. The results were plotted against the incubation time. Half-lives of the GLP-1 peptide was determined by nonlinear regression of the results using, for example Graph Pad Prism. The half-lives were expressed relative to the half-life of the GLP-1 peptide without BBI present by dividing the half-lives obtained in the presence of inhibitor with those obtained in the absence of BBI. […]

[2] = Transport of GLP-1 peptide across mucus-producing E12 cell monolayers in the presence of sodium caprate and BBI; format: in vitro ADME; conditions: human
Description: Buffer was then removed and the experiment initiated. […] Receiver samples (200 μl) were taken every 15 min.
In all samples with GLP-1 peptide and mannitol, the concentration of GLP-1 peptide was determined using a LOCI assay (or LC-MS assay) and scintillation counter, respectively.

CC[C@H](C)[C@H](NC(=O)[C@H](Cc1ccccc1)NC(=O)[C@H](CCC(=O)O)NC(=O)[C@H](CCCCNC(=O)COCCOCCNC(=O)COCCOCCNC(=O)CC[C@H](NC(=O)CCCCCCCCCCCCCCCCC(=O)O)C(=O)O)NC(=O)[C@H](C)NC(=O)[C@H](C)NC(=O)[C@H](CCC(N)=O)NC(=O)CNC(=O)[C@H](CCC(=O)O)NC(=O)[C@H](CC(C)C)NC(=O)[C@H](Cc1ccc(O)cc1)NC(=O)[C@H](CO)NC(=O)[C@H](CO)NC(=O)[C@@H](NC(=O)[C@H](CC(=O)O)NC(=O)[C@H](CO)NC(=O)[C@@H](NC(=O)[C@H](Cc1ccccc1)NC(=O)[C@@H](NC(=O)CNC(=O)[C@H](CCC(=O)O)NC(=O)C(C)(C)NC(=O)[C@@H](N)Cc1cnc[nH]1)[C@@H](C)O)[C@@H](C)O)C(C)C)C(=O)N[C@@H](C)C(=O)N[C@@H](Cc1c[nH]c2ccccc12)C(=O)N[C@@H](CC(C)C)C(=O)N[C@H](C(=O)N[C@@H](CCCNC(=N)N)C(=O)NCC(=O)N[C@@H](CCCNC(=N)N)C(=O)NCC(=O)O)C(C)C [GLP-1 peptide 1, N{Epsilon-26}-[2-[2-[2-[[2-[2-[2-[[(4S)-4-carboxy-4-(17-carboxy-heptadecanoylamino)butanoyl]amino]ethoxy]ethoxy]acetyl]amino]ethoxy]ethoxy]acetyl]-[Aib8,Arg34]-GLP-1-(7-37)-peptide]
Half Life (fold increase) [1]: >15 fold
Papp A→B at 100 µM ([2]; pH 7.4, apical to basolateral, 100 μM GLP-1 peptide + 13 mM sodium caprate, without BBI): 0.148 ×10⁻⁶ cm/s
Papp A→B at 100 µM ([2]; pH 7.4, with Bowman Birk inhibitor (BBI) 0.2%, apical to basolateral, 100 μM GLP-1 peptide + 13 mM sodium caprate + 0.2% BBI): 0.319 ×10⁻⁶ cm/s
